{
  "source": "patent US20250186405A1",
  "about": "“Compound For Use In Treating Narcolepsy” (Alkermes, Inc., priority 2023, published 2025)",
  "key": {"[1]": {"tested_on": "subjects with narcolepsy type-2 (NT2)", "conditions": "human, in vivo", "description": "Part 5 consisted of a 4-way, 4-period crossover study design in approximately 8 subjects (2 subjects per sequence; minimum of 4 subjects with 1 subject per sequence). Subjects were randomized 1:1:1:1 to 1 of 4 sequences with 4 treatment periods (3 single doses of Compound A and 1 dose of matching placebo), with up to 48 hours of washout between treatments. Treatments were administered under fasted state.\nSubjects were randomized to 1 of 4 sequences. […] In each period, subjects were administered a single dose of study drug (either Compound A or placebo) as per the randomization schedule with approximately 240 mL of noncarbonated water following overnight fasting. No food was given for at least 3 hours after dose administration (i.e., fast can be broken after the 3-hour PK time point is collected). Water was allowed ad libitum except for 1 hour before and 1 hour after study drug administration. Safety assessments including AEs, safety ECGs, vital signs, and clinical laboratory tests were conducted, and plasma PK samples were collected. Furthermore, BP and HR were monitored once every hour for 12 hours on the dosing days.\nAdverse events (AEs) and serious adverse events (SAEs) were monitored continuously until the completion of the study.\nNine subjects with NT2 were dosed in Part 5 (POC in NT2) in a randomized 4-sequence 4-period cross-over design. Each dose of Compound A or matching placebo was separated by 2 days. A 14-day washout period preceded the treatment period and included discontinuation of narcolepsy medications. All 9 subjects underwent the washout period and received at least one dose of Compound A. All subjects completed all 4-way randomized crossover periods."}, "[2]": {"tested_on": "subjects with idiopathic hypersomnia (IH)", "assay": "Part 6 IH: Maintenance of Wakefulness Test (MWT) sleep latency", "type": "in vivo, human", "conditions": "for LS mean difference vs placebo in change from baseline, average MWT sleep latency: 2-8 hours post-dose; for Change from Day −1 in Average Sleep Latency on the MWT, LSM / Change from Day −1 in Average Sleep Latency on the MWT, LSM difference vs placebo: N = 8; for Average Sleep Latency on the MWT, Change from Day −1, Mean (SD) / Average Sleep Latency on the MWT, Change from Day −1, Median / Average Sleep Latency on the MWT, Dosing Day, Mean (SD) / Average Sleep Latency on the MWT, Dosing Day, Median: n = 8", "experimental": "The Treatment Visit (Visit 2) began on Day −2, when each subject's eligibility criteria were reviewed, and eligible subjects were admitted to the clinic. Screening assessments and eligibility criteria review continued after admission until Day 1, prior to randomization and dosing. On Day −1, approximately 25 hours prior to study drug administration (on Day 1), baseline assessments for Maintenance of Wakefulness Test (MWT) began and were collected in a series of trials over approximately 10 hours.\n(§1) At specified time points (Parts 5 and 6), MWT assessments were performed and took up to 40 minutes to complete. During the MWT trials, subjects were seated in a bed or reclining chair in a darkened room with their back and head supported such that their neck is not uncomfortably flexed or extended. Subjects were instructed to sit still and remain awake for as long as possible during each 40-minute trial. If the subject fell asleep during a trial, they were awakened, and the trial was terminated. […] Upon completion of the trial, the subject returned to a normal environment/ambiance and remained awake (and were awakened if they fall asleep) until the next trial.\n(§2) Once Parts 5 and 6 were completed, the EEG data recorded during the MWT, as well as the technician notes, were transferred to the EEG vendor for further analysis. Technician notes were also maintained for transfer to Sponsor at the end of the study. A precise assessment of sleep latency was conducted by an experienced sleep scorer from the EEG vendor, and spectral analysis was performed on the EEG data recorded during MWT to assess absolute and relative powers in standard frequency bands (i.e., qEEG). All raw data and analysis results were transferred to the Sponsor.\n(§3) For the changes from baseline in average sleep latency across the first 4 sessions of the MWT, descriptive statistics were provided by dose level. Mixed model with repeated measure (MMRM) for the 4-period crossover design were conducted with the change from baseline as a dependent variable, and the dose level and the period as fixed factors. The differences in the least square means between each Compound A dose level and the placebo (each Compound A dose level—the placebo), and the 2-sided CIs were provided.\nEvaluation of Compound A effects on average sleep latency across 4 timepoints of MWT (2-, 4-, 6-, and 8-hours post-dose) has been conducted at each of the crossover periods (Days 1, 3, 5 and 7), testing placebo, and active dose levels of 5, 12, and 25 mg in the patients with IH compared to placebo. At pre-dose baseline on Day −1, MWT assessment was taken at similar times (2-, 4-, 6-, and 8-hours) as planned on dosing days assuming a dosing time of approximately 9 AM. Mean (SD) of baseline MWT average across the 4 time points on Day −1 was 22.61 (9.294), with high variability observed for IH subjects."}, "[3]": {"tested_on": "subjects with narcolepsy type-1 (NT1)", "assay": "Part 4 NT1: Maintenance of Wakefulness Test (MWT) sleep latency", "type": "in vivo, human", "conditions": "for change from baseline in average sleep latency on MWT vs placebo: 1, 3 and 8 mg", "experimental": "On Day −1, approximately 25 hours prior to study drug administration (on Day 1), baseline assessments for Maintenance of Wakefulness Test (MWT) began and were collected in a series of trials over approximately 10 hours.\nas §1, with “points (Part 4),” for “points (Parts 5 and 6),”, “complete. The MWT is the standard objective measure of an individual's ability to remain awake during the daytime in a darkened, quiet environment and is commonly used to assess response to treatment. The MWT assessments were performed according to American Academy of Sleep Medicine (AASM) guidance.” for “complete.”, “Subjects are” for “Subjects were”\nas §2, with “Part 4 was” for “Parts 5 and 6 were”\nas §3\nEvaluation of Compound A effects on average sleep latency across 4 timepoints of MWT (2-, 4-, 6-, and 8-hours post-dose) from 4 patients with NT1 has been conducted at pre-dose baseline series on Day −1, and each of the crossovers (Days 1, 3, 5 and 7), testing placebo, and active dose levels of 1, 3, and 8 mg in the patients with NT1 compared to placebo.\nEvaluation of Compound A effects on average sleep latency across 4 timepoints of MWT (2-, 4-, 6-, and 8-hours post-dose) from 10 patients with NT1 (including the 4 patients described above in 4.19.1) has been conducted at pre-dose baseline series on Day −1, and each of the crossovers (Days 1, 3, 5 and 7), testing placebo, and active dose levels of 1, 3, and 8 mg in the patients with NT1 compared to placebo."}, "[4]": {"conditions": "1 mg, NT1, N = 9 (10-patient analysis, Table 13a)"}, "[5]": {"conditions": "3 mg, NT1, N = 9 (10-patient analysis, Table 13a)"}, "[6]": {"conditions": "8 mg, NT1, N = 10 (10-patient analysis, Table 13a)"}},
  "note": "Values joined by “and” are separate entries in the source; they are usually repeats but may differ in a detail not shown here. Identical values can stand only once.",
  "data": [
    {"smiles": "CS(=O)(=O)N[C@H]1CCCN2C(=O)COc3ccccc3C3CCC(CC3)OCC12", "note": "(stereo partly drawn) [Compound A, N-[(4S,4aR,7α,10α)-1,2,3,4,4a,5,7,8,9,10,16,17-dodecahydro-17-oxo-7,10-ethanopyrido[1,2-d][1,7,4]benzodioxaazacyclotridecin-4-yl]methanesulfonamide]", "values": [
      {"measurement": "TEAE by Preferred Term: Influenza", "setting": "[1]", "value": "1 (11.1) n (%)"},
      {"measurement": "LS mean difference vs placebo in change from baseline, average MWT sleep latency", "setting": "[2]; 5 mg", "value": "8.07 min and 8 min"},
      {"measurement": "Change from Day −1 in Average Sleep Latency on the MWT, LSM", "setting": "[2]; 5 mg", "value": 6.35, "unit": "min"},
      {"measurement": "Change from Day −1 in Average Sleep Latency on the MWT, LSM difference vs placebo", "setting": "[2]; 5 mg", "value": 8.07, "unit": "min"},
      {"measurement": "Average Sleep Latency on the MWT, Change from Day −1, Mean (SD)", "setting": "[2]; 5 mg", "value": "6.35 (10.348) minutes"},
      {"measurement": "Average Sleep Latency on the MWT, Change from Day −1, Median", "setting": "[2]; 5 mg", "value": 4.75, "unit": "min"},
      {"measurement": "Average Sleep Latency on the MWT, Dosing Day, Mean (SD)", "setting": "[2]; 5 mg", "value": "28.96 (9.196) minutes"},
      {"measurement": "Average Sleep Latency on the MWT, Dosing Day, Median", "setting": "[2]; 5 mg", "value": 29.13, "unit": "min"},
      {"measurement": "observed mean MWT score over 8-hour period post-dose", "setting": "[2]; 12 mg", "value": "≥ 30", "unit": "min"},
      {"measurement": "LS mean difference vs placebo in change from baseline, average MWT sleep latency", "setting": "[2]; 12 mg", "value": "11.05 min and 11 min"},
      {"measurement": "Change from Day −1 in Average Sleep Latency on the MWT, LSM", "setting": "[2]; 12 mg", "value": 9.33, "unit": "min"},
      {"measurement": "Change from Day −1 in Average Sleep Latency on the MWT, LSM difference vs placebo", "setting": "[2]; 12 mg", "value": 11.05, "unit": "min"},
      {"measurement": "Average Sleep Latency on the MWT, Change from Day −1, Mean (SD)", "setting": "[2]; 12 mg", "value": "9.33 (11.468) minutes"},
      {"measurement": "Average Sleep Latency on the MWT, Change from Day −1, Median", "setting": "[2]; 12 mg", "value": 7.00, "unit": "min"},
      {"measurement": "Average Sleep Latency on the MWT, Dosing Day, Mean (SD)", "setting": "[2]; 12 mg", "value": "31.94 (7.814) minutes"},
      {"measurement": "Average Sleep Latency on the MWT, Dosing Day, Median", "setting": "[2]; 12 mg", "value": 32.69, "unit": "min"},
      {"measurement": "observed mean MWT score over 8-hour period post-dose", "setting": "[2]; 25 mg", "value": "≥ 30", "unit": "min"},
      {"measurement": "LS mean difference vs placebo in change from baseline, average MWT sleep latency", "setting": "[2]; 25 mg", "value": "17.67 min and 18 min"},
      {"measurement": "Change from Day −1 in Average Sleep Latency on the MWT, LSM", "setting": "[2]; 25 mg", "value": 15.95, "unit": "min"},
      {"measurement": "Change from Day −1 in Average Sleep Latency on the MWT, LSM difference vs placebo", "setting": "[2]; 25 mg", "value": 17.67, "unit": "min"},
      {"measurement": "Average Sleep Latency on the MWT, Change from Day −1, Mean (SD)", "setting": "[2]; 25 mg", "value": "15.95 (10.946) minutes"},
      {"measurement": "Average Sleep Latency on the MWT, Change from Day −1, Median", "setting": "[2]; 25 mg", "value": 15.31, "unit": "min"},
      {"measurement": "Average Sleep Latency on the MWT, Dosing Day, Mean (SD)", "setting": "[2]; 25 mg", "value": "38.56 (2.821) minutes"},
      {"measurement": "Average Sleep Latency on the MWT, Dosing Day, Median", "setting": "[2]; 25 mg", "value": 40.00, "unit": "min"},
      {"measurement": "average sleep latency improvement on MWT", "setting": "[3]; 1 mg, 4 patients with NT1", "value": 19.5, "unit": "min"},
      {"measurement": "Change from Day −1 in Average Sleep Latency on the MWT, LSM difference vs placebo", "setting": "[3]; 1 mg, NT1, N = 4", "value": 19.47, "unit": "min"},
      {"measurement": "Change from Day −1 in Average Sleep Latency on the MWT, LSM", "setting": "[3]; 1 mg, NT1, N = 4, average of 2, 4, 6, 8 h post-dose", "value": 18.41, "unit": "min"},
      {"measurement": "Change from Day −1 in Average Sleep Latency on the MWT, LSM", "setting": "[3]; [4]", "value": 16.95, "unit": "min"},
      {"measurement": "Change from Day −1 in Average Sleep Latency on the MWT, LSM difference vs placebo", "setting": "[3]; [4]", "value": 18.38, "unit": "min"},
      {"measurement": "MWT by-timepoint effect", "setting": "[3]; 3 mg, 4 patients with NT1", "value": "maximum effect over 2, 4 and 6-hour timepoints, and meaningful effect at 8 hours"},
      {"measurement": "Change from Day −1 in Average Sleep Latency on the MWT, LSM difference vs placebo", "setting": "[3]; 3 mg, NT1, N = 4", "value": 31.16, "unit": "min"},
      {"measurement": "Change from Day −1 in Average Sleep Latency on the MWT, LSM", "setting": "[3]; 3 mg, NT1, N = 4, average of 2, 4, 6, 8 h post-dose", "value": 30.09, "unit": "min"},
      {"measurement": "Change from Day −1 in Average Sleep Latency on the MWT, LSM", "setting": "[3]; [5]", "value": 21.15, "unit": "min"},
      {"measurement": "Change from Day −1 in Average Sleep Latency on the MWT, LSM difference vs placebo", "setting": "[3]; [5]", "value": 22.57, "unit": "min"},
      {"measurement": "MWT effect at every timepoint (maximum score 40 minutes)", "setting": "[3]; 8 mg, 4 patients with NT1, including 10 hours post-dose", "value": 40, "unit": "min"},
      {"measurement": "Change from Day −1 in Average Sleep Latency on the MWT, LSM difference vs placebo", "setting": "[3]; 8 mg, NT1, N = 4", "value": 38.13, "unit": "min"},
      {"measurement": "Change from Day −1 in Average Sleep Latency on the MWT, LSM", "setting": "[3]; 8 mg, NT1, N = 4, average of 2, 4, 6, 8 h post-dose", "value": 37.06, "unit": "min"},
      {"measurement": "Change from Day −1 in Average Sleep Latency on the MWT, LSM", "setting": "[3]; [6]", "value": 32.55, "unit": "min"},
      {"measurement": "Change from Day −1 in Average Sleep Latency on the MWT, LSM difference vs placebo", "setting": "[3]; [6]", "value": 33.97, "unit": "min"},
      {"measurement": "change from baseline in average sleep latency on MWT vs placebo", "setting": "[3]; 4 patients with NT1, 2-8 hours post-dose", "value": "statistically significant improvement in sleep latency"},
      {"measurement": "change from baseline in average sleep latency on MWT vs placebo", "setting": "[3]; 10 patients with NT1, 2-8 hours post-dose", "value": "statistically significant improvement in sleep latency"}
    ]}
  ]
}
